Data: patent US20170348263A1, “COMPOSITIONS AND METHODS OF USING MODIFIED RELEASE SOLABEGRON FOR LOWER URINARY TRACT SYMPTOMS” (VELICEPT THERAPEUTICS, INC., priority 2016, published 2017)

Assays:
overactive bladder = conditions: women with moderate to severe OAB; cited from earlier work
Solubility of solabegron = assay type: physicochemical
beta-3 adrenoceptor [1] = biological target: T1, beta-3 adrenoceptor (Homo sapiens, UniProt P13945); assay: Desensitization and resensitization in isolated human bladder tissue strips (EFS responses); assay type: cell-based; set-up: dose or concentration left out as unconfirmed
T1 construct: from tissue; host or cells: human urinary bladder muscle strips
T1 sequence (P13945 whole entry): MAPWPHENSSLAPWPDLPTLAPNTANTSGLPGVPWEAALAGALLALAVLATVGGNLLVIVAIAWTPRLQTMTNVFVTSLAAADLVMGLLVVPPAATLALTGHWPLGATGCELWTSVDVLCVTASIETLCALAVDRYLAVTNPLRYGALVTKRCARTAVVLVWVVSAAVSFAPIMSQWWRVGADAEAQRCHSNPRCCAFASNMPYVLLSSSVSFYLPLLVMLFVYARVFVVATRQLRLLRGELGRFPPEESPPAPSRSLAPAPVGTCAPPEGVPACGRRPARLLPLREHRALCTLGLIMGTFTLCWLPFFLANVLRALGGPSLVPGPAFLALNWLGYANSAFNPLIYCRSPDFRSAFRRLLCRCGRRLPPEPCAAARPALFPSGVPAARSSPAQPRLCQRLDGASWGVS
Experimental: Beta-3 adrenoceptor desensitization and resensitization were examined in the human bladder. Similar to the protocol used in the rat bladder, isolated human bladder tissue strips were studied for EFS responses. Optimal EFS parameters were determined to be: 30 volts, square pulse of 0.1 ms, train of 5 seconds every 60 seconds, 8-10 Hz. […] Following compound incubation, the tissues were washed with PSS for a period of 1 or 3 hr, with washes approximately every 15 min, to remove the drug. At the end of the final wash period the tissues were stimulated with EFS, and left to equilibrate for at least 30 min. A concentration-response curve was then performed in each tissue.

beta-3 adrenoceptor [2] = biological target: T2, beta-3 adrenoceptor (Rattus norvegicus, UniProt P26255); assay: Receptor desensitization/washout: CCRC after incubation with EC90 concentration and PSS washout, rat bladder strips; assay type: cell-based
T2 construct: The bladder longitudinal smooth muscle, with the urothelium still attached were mounted in 25 mL organ baths; from tissue; host or cells: rat urinary bladder smooth muscle strips (Male CD rats)
T2 sequence (P26255 whole entry): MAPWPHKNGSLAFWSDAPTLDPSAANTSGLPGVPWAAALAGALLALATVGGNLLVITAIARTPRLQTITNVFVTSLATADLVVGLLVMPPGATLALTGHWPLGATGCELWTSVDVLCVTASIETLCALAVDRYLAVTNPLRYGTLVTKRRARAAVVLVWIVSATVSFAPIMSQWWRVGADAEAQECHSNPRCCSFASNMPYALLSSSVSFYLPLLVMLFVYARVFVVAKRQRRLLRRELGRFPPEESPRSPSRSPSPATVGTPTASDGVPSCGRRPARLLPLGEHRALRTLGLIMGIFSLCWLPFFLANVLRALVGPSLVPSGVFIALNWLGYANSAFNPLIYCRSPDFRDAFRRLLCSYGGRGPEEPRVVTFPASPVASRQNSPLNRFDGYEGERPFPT
Experimental: (§1) Macroscopically normal bladders obtained from Male CD rats (220-250 g) were used. […] Each bladder was cleaned free of surrounding connective tissue and halved longitudinally. The bladder longitudinal smooth muscle, with the urothelium still attached were mounted in 25 mL organ baths containing physiological saline solution (PSS) (composition: 119.0 mM NaCl, 4.7 mM KCl, 1.2 mM MgSO4, 24.9 mM NaHCO3, 1.2 mM KH2PO4, 2.5 mM CaCl2 and 11.1 mM glucose) supplemented with 1 μM prazosin (α1-adrenoceptor antagonist) and 30 nM ICI118551 (β2-adrenoceptor antagonist), aerated with 95% O2/5% CO2 gas mix, warmed and maintained at approximately 37° C. throughout the experiment. Changes in force production were recorded using transducers. After mounting, the bladder halves were allowed to equilibrate for at least 30 min before they were set to a stable tension of approximately 1.0 g. The tissue was then allowed to equilibrate over at least a 60 min period with washes every 15 min.
In initial experiments the parameters for the EFS were assessed by performing a frequency curve to determine a frequency that would give a response that was approximately 80% of the response seen to 80 mM KCl. Optimal EFS parameters were determined to be: 30 Volts, square pulse of 0.1 ms, train of 4 seconds every 120 seconds, 15 Hz. This frequency was then used to stimulate the tissue for all subsequent experiments. The viability of bladder strips was tested by stimulating the tissue with EFS for minimum of ten minutes.
Following compound incubation, the tissues were washed with PSS for a period of 1, 3 or 6 hr, with washes approximately every 15 min, to remove the drug. At the end of the final wash period the tissues were stimulated with EFS, and left to equilibrate for at least 30 min. A CCRC was then performed in each tissue. Tissue responses were calculated as the mean (SEM) and expressed as percentage of EFS induced tone.
Tissues were incubated with the EC90 concentration of the test compounds for one hr followed by one hr, three hr or six hr of washing with PSS. […] This EFS-induced potentiation of bladder contraction from baseline was not observed with solabegron. […] Effect of the washout period following a […] incubation with test compound.
In the next series of experiments, tissues were incubated with the EC90 concentration of the test compounds for three hr followed by either one hr, three hr or six hr of washing with PSS.

beta-3 adrenoceptor [3] = biological target: T2, beta-3 adrenoceptor; assay: EC90 determination: inhibition of EFS-induced contraction in rat isolated bladder (pilot CCRC); assay type: cell-based; conditions: pilot concentration response curves, read-out: EC90 concentration to inhibit EFS-induced contraction
Experimental: as §1, with “After mounting, the bladder halves were allowed to equilibrate for at least 30 min before they were set to a stable tension of approximately 1.0 g. The tissue was then allowed to equilibrate over at least a 60 min period with washes every 15 min.” left out
In initial experiments the parameters for the EFS were assessed by performing a frequency curve to determine a frequency that would give a response that was approximately 80% of the response seen to 80 mM KCl. Optimal EFS parameters were determined to be: 30 Volts, square pulse of 0.1 ms, train of 4 seconds every 120 seconds, 15 Hz. […]
Pilot studies to determine EC90 concentrations of the test compounds were performed. […] From the data obtained in these experiments, EC90 concentrations of the test compounds were determined for use in subsequent experiments. […]

[4] = three hr incubation with EC90, one hr of washing

Question: For O=C(O)c1cccc(-c2cccc(NCCNC[C@H](O)c3cccc(Cl)c3)c2)c1 [Solabegron, 3′-[(2-{[(2R)-2-(3-chlorophenyl)-2-hydroxyethyl]amino}ethyl)amino]biphenyl-3-carboxylic acid], which “safety and tolerability, adverse events as compared to placebo” value (overactive bladder) is on record?
Answer: safe, well-tolerated, and does not demonstrate significant differences in adverse events as compared to placebo

Question: And the “symptoms of overactive bladder” value (overactive bladder)?
Answer: significantly reduce the symptoms of overactive bladder

Question: And the solubility (Solubility of solabegron)?
Answer: pH dependent and low solubility

Question: What about the “inhibition of EFS-induced bladder smooth muscle contraction” value (beta-3 adrenoceptor [1]) of the same compound?
Answer: concentration-dependent inhibition

Question: What about the “response (reduction of EFS-induced tone) after pre-exposure” value (shortened to “response (reduction of EFS-induced tone)”) (beta-3 adrenoceptor [2]; one hr incubation with EC90, one hr of washing with PSS, vs vehicle incubation) of the same compound?
Answer: significantly attenuated

Question: And the “response (reduction of EFS-induced tone)” value (beta-3 adrenoceptor [2]; one hr incubation with EC90, three hr of washing, responses to higher concentrations)?
Answer: significantly attenuated

Question: And the “response (reduction of EFS-induced tone)” value (beta-3 adrenoceptor [2]; [4])?
Answer: significantly attenuated

Question: And the “response (reduction of EFS-induced tone)” value (beta-3 adrenoceptor [2]; three hr incubation with EC90, three hr of washing, responses to the highest concentrations)?
Answer: significantly attenuated

Question: Which results are given for C[C@H](Cc1ccc2c(c1)OC(C(=O)[O-])(C(=O)[O-])O2)NC[C@H](O)c1cccc(Cl)c1.[Na+].[Na+] [CL-316,243, reference compound]?
Answer: response (reduction of EFS-induced tone) after pre-exposure (beta-3 adrenoceptor [2]; [4]): significantly attenuated; EC90 (beta-3 adrenoceptor [3]): 42 nM
